Measured values taken from patent US4889860A (Nova Pharmaceutical Corporation, priority 1987, dated 1989).
Read-outs that look alike come from different tables or passages of the source.

Columns and labels:
mu-type opioid receptor = molecular target: T1, mu-type opioid receptor (Rattus norvegicus, UniProt P33535); test: inhibition of specific [^3 H] DAGO binding to rat forebrain membranes
T1 construct: using rat forebrain membranes; from tissue; host or cells: rat forebrain membranes

[1] = molecular target: delta-type opioid receptor (Rattus norvegicus, UniProt P33533); test: inhibition of specific [^3 H] DADLE binding to rat forebrain membranes
[2] = molecular target: T2, kappa-type opioid receptor (Cavia porcellus, UniProt P41144); test: inhibition of specific [^3 H] EKC binding to guinea pig cerebellum membrane
T2 construct: using guiniea pig cerebellum membrane; from tissue; host or cells: guinea pig cerebellum membranes

[3] = conditioned taste aversion in rats; type: in vivo, rat; conditions: for conditioned taste aversion (milk intake, preference ratio): I.P., day 10
Protocol: The ability of a compound to inhibit feeding may not be related to its anorectic properties, but rather to the ability of that compound to produce a conditioned taste aversion. This possibility was tested in the following experiment. Animals were adapted to water deprivation by restricting their access to water to a single 30 min presentation occurring at the same time every day. Baseline water intakes were determined for 7 days until intakes had stabilized, and animals were assigned to treatment groups based on their intakes on the final baseline day. On the following day (day 8), all rats received a bottle of condensed milk (diluted 2:1 water:milk) in place of the water, and intakes were recorded for 30 min. Fifteen minutes after the milk was removed, rats were administered an I.P. injection of vehicles, LiCl (299.6 μmol/kg) or the compound of Example XII (1.15, 2.31, 11.55 and 23.09 μmol/kg). The compound of Example XII was dissolved in 0.3% acetic acid in a volume of 4 ml/kg. LiCl was dissolved in saline, and serves as a positive control, since it is a compound that reliably produces a strong conditioned taste aversion. This procedure was repeated on day 9. On day 10, all rats were given a two-bottle choice of water or the milk:water solution, and intakes were recorded for 30 min. Data for each experiment were analyzed by one-way ANOVA, and post-hoc comparisons were performed using Dunnett's test.
The effects of the compound of Example XII in producing a conditioned taste aversion are illustrated in FIGS. 28 and 29. In FIGS. 28 and 29 the data represent the mean ±SEM for each group. **=p<0.01 (Dunnett's test). Abbreviations: SAL, saline; AA, 0.3% acetic acid in distilled water; LiCl, lithium chloride. Doses of the compound of Example XII for each group are expressed in μmole/kg. The number of animals per group: SAL, 4: AA, LiCl and each dose of Example XII, 5. FIG. 28: Total milk intake in ml on day 10. FIG. 29: Preference ratio on day 10.

[4] = test system: oxymorphonazine (OMZ)-induced analgesia; test: antagonism of oxymorphonazine (OMZ)-induced analgesia (tail flick) in rats; type: in vivo, rat
Protocol: The compound of Example XII was evaluated for its potency and duration in the antagonism of oxymorphonazine (OMZ)-induced analgesia. […] Data represent the mean SEM of 4-5 animals per group.
(Cowan A. Trendsin Pharmacology Science, 7:69-72, 1986) With this test the intracerebroventricular administration of bombesin produces a characteristic scratching response.

[5] = S.C., dose tested (mg/kg): Naltrexone 0.5, Nalmefene 1.0, XI 10.0, XII 2.5, XIII 0.5, XIV 5.0

Sequence of delta-type opioid receptor (P33533 whole entry): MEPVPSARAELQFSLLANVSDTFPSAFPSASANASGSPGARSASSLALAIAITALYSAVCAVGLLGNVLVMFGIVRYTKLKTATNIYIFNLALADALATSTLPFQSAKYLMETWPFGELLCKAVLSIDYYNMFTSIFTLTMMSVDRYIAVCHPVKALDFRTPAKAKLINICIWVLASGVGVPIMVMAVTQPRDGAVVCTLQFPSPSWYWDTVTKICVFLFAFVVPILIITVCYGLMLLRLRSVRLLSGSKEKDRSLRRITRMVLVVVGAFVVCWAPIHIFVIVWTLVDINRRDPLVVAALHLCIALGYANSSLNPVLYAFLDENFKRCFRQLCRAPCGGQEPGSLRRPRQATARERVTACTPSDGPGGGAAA
T1 sequence (P33535 whole entry): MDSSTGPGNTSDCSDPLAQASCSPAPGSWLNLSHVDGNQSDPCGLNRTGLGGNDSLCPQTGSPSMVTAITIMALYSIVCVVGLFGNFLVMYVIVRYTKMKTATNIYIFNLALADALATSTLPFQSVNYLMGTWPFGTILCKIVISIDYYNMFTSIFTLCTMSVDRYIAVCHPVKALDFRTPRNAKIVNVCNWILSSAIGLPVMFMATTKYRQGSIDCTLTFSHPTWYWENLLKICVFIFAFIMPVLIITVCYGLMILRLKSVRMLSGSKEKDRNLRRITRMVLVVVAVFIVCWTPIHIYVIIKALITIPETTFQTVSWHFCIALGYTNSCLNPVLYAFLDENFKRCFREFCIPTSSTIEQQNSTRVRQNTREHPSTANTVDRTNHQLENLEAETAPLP
T2 sequence (P41144 whole entry): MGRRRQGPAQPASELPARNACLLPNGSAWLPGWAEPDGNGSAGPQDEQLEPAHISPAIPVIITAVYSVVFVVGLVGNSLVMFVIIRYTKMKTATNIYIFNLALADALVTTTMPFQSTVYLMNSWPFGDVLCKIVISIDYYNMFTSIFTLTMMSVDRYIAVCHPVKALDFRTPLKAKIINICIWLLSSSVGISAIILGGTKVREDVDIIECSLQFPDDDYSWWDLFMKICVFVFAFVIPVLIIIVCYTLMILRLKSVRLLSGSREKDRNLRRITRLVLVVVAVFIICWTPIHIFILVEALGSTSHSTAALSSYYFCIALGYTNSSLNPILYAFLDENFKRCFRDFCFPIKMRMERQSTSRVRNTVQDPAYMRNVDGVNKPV

SMILES: Oc1ccc2c3c1O[C@H]1C(=NOc4ccccc4)CC[C@@]4(O)[C@@H](C2)N(CC2CC2)CC[C@]314 [Example XII, 6-Phenyloximino-17-cyclopropylmethyl-4,5 α-epoxy-3, 14-dihydroxymorphinan]
- Ki (mu-type opioid receptor; (Ki) nM, μ receptor (Rat Forebrain), Table 6, [^3 H] DAGO, mean of three experiments): 0.3 nM
- Ki (mu-type opioid receptor; Ki, inhibition of specific [^3 H] DAGO binding, Tables 1 and 2, rat brain membranes, MEAN±S.E.M.): 0.21 ± 0.08 nM
- Ki ([1]; read-out: (Ki) nM, δ receptor (Rat Forebrain), Table 6, [^3 H] DADLE, mean of three experiments): 0.58 nM
- Ki ([1]; read-out: Ki, inhibition of specific [^3 H] DADLE binding, Tables 1 and 2, rat brain membranes, MEAN±S.E.M.): 1.7 ± 0.51 nM
- Ki [2]: 3.47 nM
- conditioned taste aversion (milk intake, preference ratio) [3]: totally ineffective in producing a conditioned taste aversion
- conditioned taste aversion (milk intake, preference ratio) ([3]; listed as Compound XII): inability of various doses
- general malaise ([3]; doses up to 23.09 μmol/kg): does not appear to cause any general malaise at doses up to 23.09 μmol/kg
- antagonism of OMZ-induced analgesia, PO ([4]; PO, 42.64 μmol/kg, 0.5 hours): 50%
- ED50 ([4]; Rattus norvegicus, sc, Table 8, S.C., read-out: ED 50, oxymorphonazine antagonism): 0.34 mg/kg
- ED100 ([4]; Rattus norvegicus, sc, Table 8, S.C., read-out: ED 100, oxymorphonazine antagonism): 3.1 mg/kg
- Percent Antagonism at 1 Hr [4, 5]: 90%
- Percent Antagonism at 1.5 Hr [4, 5]: 92%
- Percent Antagonism at 2 Hr [4, 5]: 91%
- Percent Antagonism at 3 Hr [4, 5]: 77%
- Percent Antagonism at 4 Hr [4, 5]: 91%
- Percent Antagonism at 6 Hr [4, 5]: 92%
- Percent Antagonism at 8 Hr [4, 5]: 80%
